Assay [1] deals with HEK293 FOP control reporter cell line. As to the kind of experiment: HEK293 FOP Assay (FOP control vector luciferase reporter). The assay is classed as cell-based. To be noted: Homo sapiens. The procedure, abridged: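 Stable HEK293 line carrying the FOP vector (randomized, non-functional TCF sites; Geneticin-selected) was run in parallel with the TOP line. Cells were plated 24 h ahead at 10000/well and given recombinant human Wnt-3a at 2500–5 ng/ml. Compounds were tested at 50 μM–15 nM (3.16-fold steps) in CAFTY buffer, pH 7.4, with 2 mM Ca2+ and 0.01% BSA.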
On the technique in general: Reporter assays use an easily measured gene product as a stand-in for the process of interest.

The next assay deals with T1, TNKS2 (Homo sapiens, UniProt Q9H2K2).
T1 sequence (Q9H2K2 1-1166): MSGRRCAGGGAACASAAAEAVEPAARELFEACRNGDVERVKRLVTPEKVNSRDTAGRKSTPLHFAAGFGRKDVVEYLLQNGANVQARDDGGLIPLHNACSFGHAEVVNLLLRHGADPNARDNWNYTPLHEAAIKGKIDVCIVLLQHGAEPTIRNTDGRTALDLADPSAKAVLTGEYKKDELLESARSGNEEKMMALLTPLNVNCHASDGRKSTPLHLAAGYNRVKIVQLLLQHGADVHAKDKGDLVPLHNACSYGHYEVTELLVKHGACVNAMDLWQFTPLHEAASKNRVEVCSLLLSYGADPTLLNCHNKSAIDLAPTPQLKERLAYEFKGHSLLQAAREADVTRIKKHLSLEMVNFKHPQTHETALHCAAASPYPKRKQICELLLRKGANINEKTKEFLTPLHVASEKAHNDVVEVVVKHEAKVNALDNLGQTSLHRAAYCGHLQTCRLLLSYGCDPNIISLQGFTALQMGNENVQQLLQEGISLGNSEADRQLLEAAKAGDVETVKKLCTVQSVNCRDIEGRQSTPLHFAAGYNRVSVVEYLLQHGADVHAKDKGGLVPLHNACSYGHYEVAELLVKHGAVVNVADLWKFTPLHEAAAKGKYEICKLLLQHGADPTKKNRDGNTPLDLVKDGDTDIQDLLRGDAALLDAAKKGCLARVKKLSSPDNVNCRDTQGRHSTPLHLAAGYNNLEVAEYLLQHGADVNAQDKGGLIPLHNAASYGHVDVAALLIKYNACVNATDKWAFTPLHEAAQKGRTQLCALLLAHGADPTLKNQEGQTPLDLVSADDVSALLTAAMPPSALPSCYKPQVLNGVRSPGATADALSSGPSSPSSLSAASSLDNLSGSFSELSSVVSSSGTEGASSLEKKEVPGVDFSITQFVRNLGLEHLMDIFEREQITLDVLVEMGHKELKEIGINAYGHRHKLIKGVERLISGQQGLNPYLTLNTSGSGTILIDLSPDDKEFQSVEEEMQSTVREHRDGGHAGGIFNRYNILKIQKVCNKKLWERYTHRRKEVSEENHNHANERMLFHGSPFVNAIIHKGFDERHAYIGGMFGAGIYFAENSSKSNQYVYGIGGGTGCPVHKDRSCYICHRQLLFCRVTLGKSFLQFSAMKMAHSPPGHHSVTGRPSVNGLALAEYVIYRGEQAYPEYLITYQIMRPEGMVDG
As to the kind of experiment: Modified TNKS2 Assay 2 (auto-parsylation, [3H]-NAD+ SPA). It counts as biochemical. To be noted: 6 nM TNKS2, 96 well.

Where [2] appears, read: HEK293 FOP control reporter cell line, 16 hours incubation, compound dilution series 50 μM to 15 nM.
The mark [3] stands for this setting: HEK293 FOP control reporter cells, 16 hours, luciferase, dilution series from 50 μM.

Molecules are shown by their SMILES.

On to `CN1CC2(C1)CN(C(=O)c1nc[nH]c1C(=O)Nc1ccc(NC(=O)c3ccc(F)cc3Cl)cc1)C2` [Example 46, N-{4-[(2-chloro-4-fluorobenzoyl)amino]phenyl}-4-[(6-methyl-2,6-diazaspiro[3.3]hept-2-yl)carbonyl]-1H-imidazole-5-carboxamide], for which the IC50 in assay [1] (setting [2]) is 12 µM; at TNKS2, 1100 nM.

For the compound `O=C(Nc1ccc(NC(=O)c2ocnc2C(=O)NCCN2CCCCC2)cc1)c1ccc(F)cc1Cl` [Example 303, N^5-{4-[(2-chloro-4-fluorobenzoyl)amino]phenyl}-N^4-[2-(piperidin-1-yl)ethyl]-1,3-oxazole-4,5-dicarboxamide], the values for the IC50 (in assay [1] (setting [2]); at TNKS2) were 8.1 µM and 10 nM, respectively.

As for `O=C(Nc1ccc(NC(=O)c2[nH]cnc2C(=O)NCCN2CCCCC2)cc1)c1ccc(F)cc1Cl` [Example 32, N^4-{4-[(2-chloro-4-fluorobenzoyl)amino]phenyl}-N^5-[2-(piperidin-1-yl)ethyl]-1H-imidazole-4,5-dicarboxamide], the values for the IC50 (in assay [1] (setting [2]); in assay [1] (setting [3]); on TNKS2) were 30 µM, 42 µM and 0.3 nM, respectively.

For the compound `CNC(=O)c1nc[nH]c1C(=O)Nc1ccc(NC(=O)c2c(Cl)cccc2C(F)(F)F)cc1` [Example 36, N^5-(4-{[2-chloro-6-(trifluoromethyl)benzoyl]amino}phenyl)-N^4-methyl-1H-imidazole-4,5-dicarboxamide], the figures for the IC50 (in assay [1] (setting [3]); against TNKS2) were not below 50 µM and more than 10000 nM, respectively.

With `CC1(C)CC(NC(=O)c2nc[nH]c2C(=O)Nc2ccc(NC(=O)c3ccc(F)cc3Cl)cc2)CCO1` (stereo not shown) [Example 391, N^5-{4-[(2-chloro-4-fluorobenzoyl)amino]phenyl}-N^4-(2,2-dimethyltetrahydro-2H-pyran-4-yl)-1H-imidazole-4,5-dicarboxamide], the figures for the IC50 (in assay [1] (setting [2]); against TNKS2) were 27 µM and 450 nM, respectively.

Consider `CNC(=O)c1nc[nH]c1C(=O)Nc1ccc(NC(=O)c2ccc(F)cc2Br)cc1` [Example 56, N^5-{4-[(2-bromo-4-fluorobenzoyl)amino]phenyl}-N^4-methyl-1H-imidazole-4,5-dicarboxamide], for which the IC50 came to 10 µM in assay [1] (setting [2]) and 570 nM against TNKS2.

`O=C(Nc1ccc(NC(=O)c2[nH]cnc2C(=O)N2CCOCC2)cc1)c1ccc(F)cc1Cl` [Example 29, N-{4-[(2-chloro-4-fluorobenzoyl)amino]phenyl}-5-(morpholin-4-ylcarbonyl)-1H-imidazole-4-carboxamide]: the concentration for half-maximal inhibition (IC50) is not below 50 µM in assay [1] (setting [3]) and 1900 nM against TNKS2.

For the compound `Cc1nc(C(=O)Nc2ccc(NC(=O)c3ccc(F)cc3Cl)cc2)c(C(=O)NCCN2CCCCC2)[nH]1` [Example 67, N^4-{4-[(2-chloro-4-fluorobenzoyl)amino]phenyl}-2-methyl-N^5-[2-(piperidin-1-yl)ethyl]-1H-imidazole-4,5-dicarboxamide], the IC50 in assay [1] (setting [2]) stood at 13 µM; against TNKS2 it was 30 nM.

For `CNC(=O)c1nc[nH]c1C(=O)Nc1ccc(NC(=O)c2cc(Cl)ccc2Cl)cc1` [Example 309, N^5-{4-[(2,5-dichlorobenzoyl)amino]phenyl}-N^4-methyl-1H-imidazole-4,5-dicarboxamide], the IC50 in assay [1] (setting [2]) turned out to be 38 µM; against TNKS2 it was 340 nM.

Consider `CCN1CCC[C@@H]1CNC(=O)c1nc[nH]c1C(=O)Nc1ccc(NC(=O)c2ccc(F)cc2Cl)cc1` [Example 413, N^5-{4-[(2-chloro-4-fluorobenzoyl)amino]phenyl}-N^4-{[(2R)-1-ethylpyrrolidin-2-yl]methyl}-1H-imidazole-4,5-dicarboxamide], for which the figures for the IC50 (in assay [1] (setting [2]); against TNKS2) were 26 µM and 90 nM, respectively.

On to `CN(C)CCNC(=O)c1nc[nH]c1C(=O)Nc1ccc(NC(=O)c2ccc(F)cc2Cl)c(F)c1` [Example 73, N^5-{4-[(2-chloro-4-fluorobenzoyl)amino]-3-fluorophenyl}-N^4-[2-(dimethylamino)ethyl]-1H-imidazole-4,5-dicarboxamide], for which the IC50 in assay [1] (setting [2]) turned out to be 33 µM; on TNKS2 it was 30 nM.

On to `CN(C)CCNC(=O)c1nc[nH]c1C(=O)Nc1ccc(NC(=O)c2ccc(F)cc2Cl)cc1` [Example 22, N^4-{4-[(2-chloro-4-fluorobenzoyl)amino]phenyl}-N^5-[2-(dimethylamino)ethyl]-1H-imidazole-4,5-dicarboxamide], for which the IC50 in assay [1] (setting [3]) was not below 50 µM; against TNKS2, 20 nM.

In the case of `CNC(=O)c1nc[nH]c1C(=O)Nc1ccc(NC(=O)c2ccc(Cl)cc2F)cc1` [Example 333, N^5-{4-[(4-chloro-2-fluorobenzoyl)amino]phenyl}-N^4-methyl-1H-imidazole-4,5-dicarboxamide], the results for the IC50 (in assay [1] (setting [2]); against TNKS2) were 40 µM and 580 nM, respectively.

Take `CNC(=O)c1nc[nH]c1C(=O)Nc1ccc(NC(=O)c2ccccc2OC)cc1` [Example 60, N^5-{4-[(2-methoxybenzoyl)amino]phenyl}-N^4-methyl-1H-imidazole-4,5-dicarboxamide]: the IC50 in assay [1] (setting [2]) is 9.75 µM; on TNKS2 it was more than 10000 nM.

With `O=C(Nc1ccc(NC(=O)c2[nH]cnc2C(=O)NCCC2CCCC2)cc1)c1cc(F)c(F)cc1Cl` [Example 48, N^5-{4-[(2-chloro-4,5-difluorobenzoyl)amino]phenyl}-N^4-(2-cyclopentylethyl)-1H-imidazole-4,5-dicarboxamide], the IC50 is 17 µM in assay [1] (setting [2]) and more than 10000 nM against TNKS2.

Regarding `O=C(Nc1ccc(NC(=O)c2nc[nH]c2C(=O)NCCN2CCC(F)(F)C2)cc1)c1ccc(F)cc1Cl` [Example 279, N^4-{4-[(2-chloro-4-fluorobenzoyl)amino]phenyl}-N^5-[2-(3,3-difluoropyrrolidin-1-yl)ethyl]-1H-imidazole-4,5-dicarboxamide], the IC50 stood at 12 µM in assay [1] (setting [2]) and 20 nM at TNKS2.

On to `CN1CCN(CC(C)(C)CNC(=O)c2nc[nH]c2C(=O)Nc2ccc(NC(=O)c3ccc(F)cc3Cl)cc2)CC1` [Example 415, N^5-{4-[(2-chloro-4-fluorobenzoyl)amino]phenyl}-N^4-[2,2-dimethyl-3-(4-methylpiperazin-1-yl)propyl]-1H-imidazole-4,5-dicarboxamide], for which the IC50 in assay [1] (setting [2]) is 7.8 µM; at TNKS2, 80 nM.

Turning to `CNC(=O)c1nc[nH]c1C(=O)Nc1ccc(NC(=O)c2cc(Br)ccc2Cl)cc1` [Example 313, N^5-{4-[(5-bromo-2-chlorobenzoyl)amino]phenyl}-N^4-methyl-1H-imidazole-4,5-dicarboxamide], the IC50 in assay [1] (setting [2]) came out at 25 µM; against TNKS2, 1000 nM.

With `Cc1nc(C(=O)Nc2ccc(NC(=O)c3ccc(F)cc3Cl)cc2)c(C(=O)NCCN(C)C)[nH]1` [Example 66, N^4-{4-[(2-chloro-4-fluorobenzoyl)amino]phenyl}-N^5-[2-(dimethylamino)ethyl]-2-methyl-1H-imidazole-4,5-dicarboxamide], the IC50 in assay [1] (setting [2]) came to 6.2 µM; against TNKS2, 40 nM.

As for `CC(C)N(CCNC(=O)c1nc[nH]c1C(=O)Nc1ccc(NC(=O)c2ccc(F)cc2Cl)cc1)C(C)C` [Example 389, N^5-{4-[(2-chloro-4-fluorobenzoyl)amino]phenyl}-N^4-{2-[di(propan-2-yl)amino]ethyl}-1H-imidazole-4,5-dicarboxamide], the IC50 was determined as 11 µM in assay [1] (setting [2]) and 280 nM against TNKS2.

On to `CN1CCCC(CNC(=O)c2[nH]cnc2C(=O)Nc2ccc(NC(=O)c3ccc(F)cc3Cl)cc2)C1` (stereo not shown) [Example 298, N^4-{4-[(2-chloro-4-fluorobenzoyl)amino]phenyl}-N^5-[(1-methylpiperidin-3-yl)methyl]-1H-imidazole-4,5-dicarboxamide], for which the figures for the IC50 (in assay [1] (setting [2]); on TNKS2) were 17 µM and 60 nM, respectively.

In general, IC50 refers to the midpoint of a concentration-inhibition curve.

Source of the values: patent publication US9884063B2, “Amido-substituted azole compounds” (Bayer Pharma Aktiengesellschaft, priority 2014, dated 2018).
